# Data from ChEMBL document CHEMBL5291721, “A preclinical secondary pharmacology resource illuminates target-adverse drug reaction associations of marketed drugs” (Nat Commun, 2023).
# Assays:
# [1] = biological target: Sodium-dependent serotonin transporter (Homo sapiens, UniProt P31645)
# [2] = biological target: 5-hydroxytryptamine receptor 2A (Homo sapiens, UniProt P28223); assay type: functional, cell-based
# [3] = biological target: Delta-type opioid receptor (Homo sapiens, UniProt P41143)
# Sequence of Delta-type opioid receptor (P41143 whole entry): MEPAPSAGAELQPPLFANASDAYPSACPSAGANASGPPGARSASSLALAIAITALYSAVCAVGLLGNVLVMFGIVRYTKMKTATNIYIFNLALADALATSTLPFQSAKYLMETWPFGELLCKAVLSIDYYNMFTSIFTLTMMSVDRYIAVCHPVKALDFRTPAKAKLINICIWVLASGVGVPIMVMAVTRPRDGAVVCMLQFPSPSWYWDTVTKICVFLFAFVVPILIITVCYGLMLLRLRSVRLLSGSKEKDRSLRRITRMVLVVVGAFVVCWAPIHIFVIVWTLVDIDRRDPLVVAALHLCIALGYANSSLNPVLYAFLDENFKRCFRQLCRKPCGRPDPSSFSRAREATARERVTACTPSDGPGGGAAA
# [4] = biological target: Beta-1 adrenergic receptor (Homo sapiens, UniProt P08588); assay type: functional
# Sequence of Beta-1 adrenergic receptor (P08588 whole entry): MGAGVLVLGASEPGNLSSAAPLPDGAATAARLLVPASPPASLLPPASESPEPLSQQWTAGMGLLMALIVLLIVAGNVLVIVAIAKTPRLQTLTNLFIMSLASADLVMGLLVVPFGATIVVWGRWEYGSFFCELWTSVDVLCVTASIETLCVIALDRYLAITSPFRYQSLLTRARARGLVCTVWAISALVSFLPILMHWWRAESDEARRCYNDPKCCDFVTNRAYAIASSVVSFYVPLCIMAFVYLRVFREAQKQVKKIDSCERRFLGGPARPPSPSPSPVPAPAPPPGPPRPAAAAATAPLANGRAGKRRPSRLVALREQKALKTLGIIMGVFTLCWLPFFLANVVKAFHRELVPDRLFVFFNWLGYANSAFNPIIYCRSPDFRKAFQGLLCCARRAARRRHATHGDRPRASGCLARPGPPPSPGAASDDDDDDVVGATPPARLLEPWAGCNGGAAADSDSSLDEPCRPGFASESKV
# [5] = biological target: cGMP-inhibited 3',5'-cyclic phosphodiesterase 3A (Homo sapiens, UniProt Q14432); assay type: functional
# Sequence of cGMP-inhibited 3',5'-cyclic phosphodiesterase 3A (Q14432 whole entry): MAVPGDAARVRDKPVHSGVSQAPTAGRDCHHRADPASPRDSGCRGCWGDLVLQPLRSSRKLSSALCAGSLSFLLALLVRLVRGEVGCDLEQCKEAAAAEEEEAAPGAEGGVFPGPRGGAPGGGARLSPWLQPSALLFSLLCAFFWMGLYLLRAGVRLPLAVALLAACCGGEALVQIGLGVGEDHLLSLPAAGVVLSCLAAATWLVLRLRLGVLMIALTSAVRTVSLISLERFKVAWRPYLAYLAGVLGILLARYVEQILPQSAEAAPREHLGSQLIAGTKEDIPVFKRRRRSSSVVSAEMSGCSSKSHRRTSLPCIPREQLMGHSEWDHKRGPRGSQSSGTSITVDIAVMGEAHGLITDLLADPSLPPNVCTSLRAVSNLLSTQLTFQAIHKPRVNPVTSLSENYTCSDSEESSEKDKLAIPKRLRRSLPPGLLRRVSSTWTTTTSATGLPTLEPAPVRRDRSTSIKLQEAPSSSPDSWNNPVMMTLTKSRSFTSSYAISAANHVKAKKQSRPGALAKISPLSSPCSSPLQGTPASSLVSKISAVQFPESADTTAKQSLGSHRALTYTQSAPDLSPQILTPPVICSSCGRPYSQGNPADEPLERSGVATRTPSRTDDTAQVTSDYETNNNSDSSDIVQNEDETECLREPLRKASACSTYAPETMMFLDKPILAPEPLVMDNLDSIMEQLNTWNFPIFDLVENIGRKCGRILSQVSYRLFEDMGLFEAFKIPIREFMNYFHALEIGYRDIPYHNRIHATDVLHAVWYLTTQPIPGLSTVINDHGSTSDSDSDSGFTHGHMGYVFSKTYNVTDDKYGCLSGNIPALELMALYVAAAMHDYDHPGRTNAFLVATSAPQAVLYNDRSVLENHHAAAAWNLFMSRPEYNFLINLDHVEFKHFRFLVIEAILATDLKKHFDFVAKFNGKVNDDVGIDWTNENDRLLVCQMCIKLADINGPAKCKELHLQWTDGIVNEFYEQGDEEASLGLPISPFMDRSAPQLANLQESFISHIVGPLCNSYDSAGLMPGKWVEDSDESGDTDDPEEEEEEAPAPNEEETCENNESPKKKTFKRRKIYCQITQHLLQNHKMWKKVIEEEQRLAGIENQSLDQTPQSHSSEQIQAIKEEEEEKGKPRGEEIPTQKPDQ
# [6] = biological target: Adenosine receptor A2a (Homo sapiens, UniProt P29274)
# Sequence of Adenosine receptor A2a (P29274 whole entry): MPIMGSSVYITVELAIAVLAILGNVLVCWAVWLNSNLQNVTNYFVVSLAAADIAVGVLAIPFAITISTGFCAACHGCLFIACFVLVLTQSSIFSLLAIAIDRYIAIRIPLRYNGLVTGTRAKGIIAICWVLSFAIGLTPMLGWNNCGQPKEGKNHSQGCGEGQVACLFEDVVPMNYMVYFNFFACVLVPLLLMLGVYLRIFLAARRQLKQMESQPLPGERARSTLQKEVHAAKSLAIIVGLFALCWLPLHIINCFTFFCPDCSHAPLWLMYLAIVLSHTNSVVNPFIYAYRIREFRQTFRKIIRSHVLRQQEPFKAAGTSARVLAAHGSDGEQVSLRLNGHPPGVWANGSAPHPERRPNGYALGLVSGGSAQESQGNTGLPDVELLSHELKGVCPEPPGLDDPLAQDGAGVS
# [7] = biological target: Histamine H2 receptor (Homo sapiens, UniProt P25021); assay type: functional, cell-based
# Sequence of Histamine H2 receptor (P25021 whole entry): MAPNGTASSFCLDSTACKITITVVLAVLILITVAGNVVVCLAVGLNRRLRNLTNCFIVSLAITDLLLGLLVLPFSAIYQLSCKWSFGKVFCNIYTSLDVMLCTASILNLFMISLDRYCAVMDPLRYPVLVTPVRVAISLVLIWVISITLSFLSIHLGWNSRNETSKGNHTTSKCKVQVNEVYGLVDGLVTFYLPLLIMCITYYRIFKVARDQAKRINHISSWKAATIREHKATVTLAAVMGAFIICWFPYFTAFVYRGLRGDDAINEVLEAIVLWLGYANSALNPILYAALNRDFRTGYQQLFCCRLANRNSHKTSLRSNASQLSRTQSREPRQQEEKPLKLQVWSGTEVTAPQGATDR
# [8] = biological target: T1, Cholecystokinin receptor type A (Homo sapiens, UniProt P32238)
# T1 sequence (P32238 whole entry): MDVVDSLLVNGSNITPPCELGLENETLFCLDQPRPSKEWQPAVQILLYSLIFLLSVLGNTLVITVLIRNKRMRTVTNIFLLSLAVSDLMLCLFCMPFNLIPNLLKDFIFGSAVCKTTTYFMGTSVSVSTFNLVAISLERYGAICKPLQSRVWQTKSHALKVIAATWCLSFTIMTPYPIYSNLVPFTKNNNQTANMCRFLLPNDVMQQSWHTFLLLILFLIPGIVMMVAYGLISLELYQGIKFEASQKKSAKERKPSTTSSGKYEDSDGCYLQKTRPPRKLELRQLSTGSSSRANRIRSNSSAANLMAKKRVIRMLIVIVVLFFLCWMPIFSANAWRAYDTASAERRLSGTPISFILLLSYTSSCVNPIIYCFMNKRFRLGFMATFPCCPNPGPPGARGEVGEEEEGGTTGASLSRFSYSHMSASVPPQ
# [9] = biological target: T2, 5-hydroxytryptamine receptor 1A (Homo sapiens, UniProt P08908); assay type: functional, cell-based
# T2 sequence (P08908 whole entry): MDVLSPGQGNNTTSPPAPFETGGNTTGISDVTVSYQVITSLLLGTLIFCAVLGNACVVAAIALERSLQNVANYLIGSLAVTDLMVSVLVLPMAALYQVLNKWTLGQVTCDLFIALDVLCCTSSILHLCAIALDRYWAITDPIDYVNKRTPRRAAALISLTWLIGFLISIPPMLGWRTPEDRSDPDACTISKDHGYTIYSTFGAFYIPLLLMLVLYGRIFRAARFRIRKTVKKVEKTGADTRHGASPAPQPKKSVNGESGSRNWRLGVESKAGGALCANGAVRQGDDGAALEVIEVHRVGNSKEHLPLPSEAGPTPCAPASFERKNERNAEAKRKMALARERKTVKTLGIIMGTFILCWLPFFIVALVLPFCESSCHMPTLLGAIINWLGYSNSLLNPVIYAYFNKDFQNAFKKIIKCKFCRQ
# [10] = biological target: Glutamate receptor ionotropic, NMDA 1 (Rattus norvegicus, UniProt P35439)
# [11] = biological target: T3, Type-1 angiotensin II receptor (Homo sapiens, UniProt P30556)
# T3 sequence (P30556 whole entry): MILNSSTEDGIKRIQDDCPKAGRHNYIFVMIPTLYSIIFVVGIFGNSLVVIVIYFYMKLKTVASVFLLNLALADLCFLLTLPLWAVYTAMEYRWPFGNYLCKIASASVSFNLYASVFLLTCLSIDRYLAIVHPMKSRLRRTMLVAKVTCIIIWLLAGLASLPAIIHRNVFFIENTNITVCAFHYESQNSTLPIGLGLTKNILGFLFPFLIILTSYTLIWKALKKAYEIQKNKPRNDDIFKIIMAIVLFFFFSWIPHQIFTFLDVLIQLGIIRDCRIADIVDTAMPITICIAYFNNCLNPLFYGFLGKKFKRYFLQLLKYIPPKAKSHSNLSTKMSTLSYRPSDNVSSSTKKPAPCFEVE
# [12] = biological target: T4, Thromboxane A2 receptor (Homo sapiens, UniProt P21731)
# T4 sequence (P21731 whole entry): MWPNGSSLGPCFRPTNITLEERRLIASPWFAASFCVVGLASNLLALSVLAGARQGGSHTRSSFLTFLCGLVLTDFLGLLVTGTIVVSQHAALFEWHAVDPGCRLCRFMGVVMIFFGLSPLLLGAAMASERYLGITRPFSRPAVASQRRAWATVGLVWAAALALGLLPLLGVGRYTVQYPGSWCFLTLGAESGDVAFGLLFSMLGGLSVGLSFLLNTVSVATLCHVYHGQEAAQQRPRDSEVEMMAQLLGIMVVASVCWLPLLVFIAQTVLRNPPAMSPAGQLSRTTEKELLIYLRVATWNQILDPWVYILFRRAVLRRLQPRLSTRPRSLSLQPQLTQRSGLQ
# [13] = biological target: Growth hormone secretagogue receptor type 1 (Homo sapiens, UniProt Q92847)
# Sequence of Growth hormone secretagogue receptor type 1 (Q92847 whole entry): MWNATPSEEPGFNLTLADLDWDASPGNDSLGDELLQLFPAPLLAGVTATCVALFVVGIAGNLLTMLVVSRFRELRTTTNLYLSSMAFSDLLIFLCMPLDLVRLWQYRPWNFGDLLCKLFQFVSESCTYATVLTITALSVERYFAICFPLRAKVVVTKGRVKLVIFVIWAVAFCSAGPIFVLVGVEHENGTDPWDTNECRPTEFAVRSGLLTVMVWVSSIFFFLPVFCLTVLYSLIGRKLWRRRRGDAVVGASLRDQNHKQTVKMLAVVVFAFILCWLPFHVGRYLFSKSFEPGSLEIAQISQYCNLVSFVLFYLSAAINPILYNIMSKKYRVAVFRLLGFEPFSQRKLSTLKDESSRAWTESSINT
# [14] = biological target: 5-hydroxytryptamine receptor 2B (Homo sapiens, UniProt P41595); assay type: functional, cell-based
# Sequence of 5-hydroxytryptamine receptor 2B (P41595 whole entry): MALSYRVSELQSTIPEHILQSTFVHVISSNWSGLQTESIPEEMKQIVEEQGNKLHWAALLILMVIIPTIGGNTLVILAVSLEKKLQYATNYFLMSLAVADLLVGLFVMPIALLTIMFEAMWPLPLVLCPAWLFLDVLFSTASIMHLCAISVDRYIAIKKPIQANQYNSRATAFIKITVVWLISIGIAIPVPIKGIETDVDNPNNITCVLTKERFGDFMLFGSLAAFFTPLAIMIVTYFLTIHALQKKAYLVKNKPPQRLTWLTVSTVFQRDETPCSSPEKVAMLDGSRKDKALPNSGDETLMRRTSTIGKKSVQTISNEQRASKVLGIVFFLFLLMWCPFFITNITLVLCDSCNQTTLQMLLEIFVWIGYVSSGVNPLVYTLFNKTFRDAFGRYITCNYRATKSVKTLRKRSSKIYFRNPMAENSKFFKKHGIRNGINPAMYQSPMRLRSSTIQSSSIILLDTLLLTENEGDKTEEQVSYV
# [15] = biological target: T5, Gastrin/cholecystokinin type B receptor (Homo sapiens, UniProt P32239)
# T5 sequence (P32239 whole entry): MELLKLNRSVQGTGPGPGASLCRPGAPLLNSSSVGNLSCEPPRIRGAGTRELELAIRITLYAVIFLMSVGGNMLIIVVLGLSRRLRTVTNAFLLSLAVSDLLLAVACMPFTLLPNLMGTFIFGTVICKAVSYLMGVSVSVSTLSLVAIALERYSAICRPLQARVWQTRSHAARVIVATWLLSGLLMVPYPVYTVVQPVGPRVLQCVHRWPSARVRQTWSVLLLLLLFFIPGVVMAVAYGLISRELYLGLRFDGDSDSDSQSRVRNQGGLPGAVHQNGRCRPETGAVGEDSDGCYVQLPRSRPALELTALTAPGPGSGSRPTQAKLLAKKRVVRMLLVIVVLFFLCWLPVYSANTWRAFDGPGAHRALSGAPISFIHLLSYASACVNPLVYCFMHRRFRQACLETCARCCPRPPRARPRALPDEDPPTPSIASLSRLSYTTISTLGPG
# [16] = biological target: Cannabinoid receptor 1 (Homo sapiens, UniProt P21554); assay type: functional, cell-based
# Sequence of Cannabinoid receptor 1 (P21554 whole entry): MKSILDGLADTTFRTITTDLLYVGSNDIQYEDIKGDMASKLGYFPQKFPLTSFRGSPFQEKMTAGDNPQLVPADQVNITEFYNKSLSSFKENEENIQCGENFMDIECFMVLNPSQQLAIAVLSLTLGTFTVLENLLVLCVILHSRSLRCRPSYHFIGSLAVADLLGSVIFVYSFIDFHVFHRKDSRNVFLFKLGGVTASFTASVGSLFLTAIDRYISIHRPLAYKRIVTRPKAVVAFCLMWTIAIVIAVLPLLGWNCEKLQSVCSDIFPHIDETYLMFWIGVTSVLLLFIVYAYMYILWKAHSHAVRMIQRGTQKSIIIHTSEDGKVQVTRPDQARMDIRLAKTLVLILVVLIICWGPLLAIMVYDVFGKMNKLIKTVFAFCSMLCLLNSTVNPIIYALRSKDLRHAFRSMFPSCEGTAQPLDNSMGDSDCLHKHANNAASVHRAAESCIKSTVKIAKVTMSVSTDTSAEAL
# Further: assay procedure not described here.
# Sequence of Sodium-dependent serotonin transporter (P31645 whole entry): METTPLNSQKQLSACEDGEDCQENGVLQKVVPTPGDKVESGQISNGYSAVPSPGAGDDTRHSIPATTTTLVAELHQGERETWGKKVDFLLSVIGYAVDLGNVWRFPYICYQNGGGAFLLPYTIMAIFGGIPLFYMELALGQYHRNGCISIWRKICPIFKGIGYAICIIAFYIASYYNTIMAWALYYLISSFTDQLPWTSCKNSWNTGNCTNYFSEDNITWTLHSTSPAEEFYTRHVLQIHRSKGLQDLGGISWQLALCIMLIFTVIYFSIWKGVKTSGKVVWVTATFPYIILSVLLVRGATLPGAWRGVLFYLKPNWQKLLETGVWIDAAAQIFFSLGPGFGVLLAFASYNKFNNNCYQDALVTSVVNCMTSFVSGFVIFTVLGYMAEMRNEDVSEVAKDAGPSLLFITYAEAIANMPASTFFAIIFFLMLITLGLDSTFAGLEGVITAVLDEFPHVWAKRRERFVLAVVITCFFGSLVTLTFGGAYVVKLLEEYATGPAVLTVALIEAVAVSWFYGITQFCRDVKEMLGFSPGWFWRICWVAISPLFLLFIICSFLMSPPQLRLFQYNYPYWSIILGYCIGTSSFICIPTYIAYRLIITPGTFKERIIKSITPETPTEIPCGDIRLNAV
Structure (SMILES),AC50 [1] [µM],AC50 [2] [µM],AC50 [3] [µM],AC50 [4] [µM],AC50 [5] [µM],AC50 [6] [µM],AC50 [7] [µM],AC50 [8] [µM],AC50 [9] [µM],AC50 [10] [µM],AC50 [11] [µM],AC50 [12] [µM],AC50 [13] [µM],AC50 [14] [µM],AC50 [15] [µM],AC50 [16] [µM]
C[C@H](CSC(=O)c1ccccc1)C(=O)N1C[C@@H](Sc2ccccc2)C[C@H]1C(=O)O [ZOFENOPRIL],> 10,> 10,> 30,> 10,> 30,> 10,> 10,> 10,> 10,> 10,> 10,> 10,> 10,> 10,,
CNC(C)CCC=C(C)C (stereo not drawn) [ISOMETHEPTENE],> 30,,,> 30,,> 30,,> 30,,,> 30,> 30,> 30,,> 30,
CC(=O)O[C@H]1CC[C@@]2(C)C(=CC[C@@H]3[C@@H]2CC[C@]2(C)C(c4cccnc4)=CC[C@@H]32)C1 [ABIRATERONE ACETATE],> 30,> 30,> 30,> 30,> 30,> 30,> 30,> 30,,,> 30,> 30,> 30,> 30,,> 30
CO[C@@H]1[C@@H](O[C@@H]2O[C@H](C)[C@@H](O[C@H]3C[C@@](C)(O)[C@@H](OC(=O)CC(C)C)[C@H](C)O3)[C@H](N(C)C)[C@H]2O)[C@@H](CC=O)C[C@@H](C)[C@@H](O)/C=C/C=C/C[C@@H](C)OC(=O)C[C@H]1OC(C)=O [JOSAMYCIN],> 10,> 10,> 30,> 10,> 30,> 10,> 10,> 10,> 10,> 10,> 10,> 10,> 10,> 10,,
Cc1cccc(C(C)c2cnc[nH]2)c1C (stereo not drawn) [MEDETOMIDINE],,> 30,> 30,> 30,> 30,> 30,> 30,> 30,> 30,> 10,> 30,> 30,> 30,> 30,> 30,
CC(C)(C)c1cc(C(C)(C)C)c(NC(=O)c2c[nH]c3ccccc3c2=O)cc1O [IVACAFTOR],> 30,,> 30,> 10,> 30,> 30,> 10,> 30,,> 10,26.9,22,> 30,> 10,> 30,
COc1ccc2c3c1O[C@H]1[C@@H](O)C=C[C@H]4[C@@H](C2)N(C)CC[C@@]341 [CODEINE],> 30,,,0.9,3,> 30,> 10,> 30,> 10,> 10,> 30,> 30,> 30,> 10,> 30,> 30
CC(C[N+](C)(C)C)OC(N)=O (stereo not drawn) [BETHANECHOL],> 10,> 10,> 30,> 10,> 30,> 10,> 10,> 10,,> 10,> 10,> 10,> 10,> 10,,> 30
CN1CCN(CC/C=C2/c3ccccc3Sc3ccc(S(=O)(=O)N(C)C)cc32)CC1 [THIOTHIXENE],> 10,,> 10,> 10,11,11.6,> 10,> 30,,> 10,> 30,> 30,25.3,4.9,> 30,> 30
